From patent US20030153618A1, “Treatment and prevention of herpes simplex infections” (priority 1999, published 2003)
Where “and” joins values, the source holds several entries; their conditions need not be identical. Identical values can stand only once.

How the values were obtained:
[1] = test system: HSV, Type II; test: Direct plaque-forming unit (PFU) count in BSC cells in defined media with set lysine (or derivative):arginine ratio; format: cell-based; settings: for P.F.U. Count: average of three tests; for Plaque Forming Unit Count, Average: average of experiments 1-6
Protocol: Absorbed virons were absorbed in susceptible cells in chemically defined media and the number of plaques made were counted. (See Davis, B. D., et al., Microbiology, 2nd Ed., Harper & Row, 1973, Part V, and sources cited therein for procedural details and discussion of the plaque method.)
The cell line chosen was green monkey kidney cells (BSC) that have been passed greater than 41 times. […] The virons were added to a confluent lawn of BSC cells and allowed to absorb at 25° C. for one hour. The unabsorbed virons and the media were removed by washing three times in PBS. […] The control media contained a lysine/arginine ratio of 1:1. The plaques were counted when easily readable. Flasks are done in triplicate.

[2] = test system: Herpes simplex II virus; test: Back titration plaque assay: PFU counts at stated amounts of compound under test and arginine; format: cell-based, Herpes simplex II virus (BSC cells)
Protocol: The following experiments were conducted by back titration: Herpes simplex II virus from laboratory stocks was used. BSC cells were grown to confluence in Eagles medium with 15% fetal calf serum, 150 units per milliliter of penicillin and 100 micrograms per milliliter of streptomycin. The cultures were inoculated with 500 PFU of HS II. The virons were allowed to absorb for one hour at 25° C. The tissue cultures were then washed three times with sterile PBS to remove excess media and non-absorbed virons. The cells were then incubated at 37° C. until four-plus cytopathic effects were observed. The cells were then disrupted by slow freeze-thaw two times. The suspension was then clarified by slow speed centrifugation at 4° C. The supemanant suspension was then added to confluent BSC cultures. After one hour absorption, the cells were washed with PBS twice. The cells were overlaid in defined reagent (in triplicate) Eagles media in noble agar. The cells were then incubated at 37° C. until the plaques were easily counted, usually 40 t 72 hours. the cells were then washed two times with PBS and then fixed with 10% H2CO and a 2% sodium acetate. The cells were then stained in 0.1% crystal violet in ethanol. In the tables which follow the concentration of the compound to be tested, in micrograms per milliliter, is listed across the top of the table and the concentration of arginine in micrograms per milliliter is listed down the left side of the table, the count of plaque-forming units being shown in the matrix.

[3] = Compound Ratio to Arginine 10:1
[4] = Compound Ratio to Arginine 100:1
[5] = compound 10 μg/ml, arginine 0 μg/ml
[6] = compound 10 μg/ml, arginine 2.5 μg/ml
[7] = compound 10 μg/ml, arginine 5.0 μg/ml
[8] = compound 10 μg/ml, arginine 7.5 μg/ml
[9] = compound 10 μg/ml, arginine 10 μg/ml
[10] = compound 10 μg/ml, arginine 15 μg/ml
[11] = compound 10 μg/ml, arginine 20 μg/ml
[12] = compound 10 μg/ml, arginine 25 μg/ml
[13] = compound 25 μg/ml, arginine 0 μg/ml
[14] = compound 25 μg/ml, arginine 2.5 μg/ml
[15] = compound 25 μg/ml, arginine 5.0 μg/ml
[16] = compound 25 μg/ml, arginine 7.5 μg/ml
[17] = compound 25 μg/ml, arginine 10 μg/ml
[18] = compound 25 μg/ml, arginine 15 μg/ml
[19] = compound 25 μg/ml, arginine 20 μg/ml
[20] = compound 25 μg/ml, arginine 25 μg/ml
[21] = compound 50 μg/ml, arginine 0 μg/ml
[22] = compound 50 μg/ml, arginine 2.5 μg/ml
[23] = compound 50 μg/ml, arginine 5.0 μg/ml
[24] = compound 50 μg/ml, arginine 7.5 μg/ml
[25] = compound 50 μg/ml, arginine 10 μg/ml
[26] = compound 50 μg/ml, arginine 15 μg/ml
[27] = compound 50 μg/ml, arginine 20 μg/ml
[28] = compound 50 μg/ml, arginine 25 μg/ml
[29] = compound 100 μg/ml, arginine 0 μg/ml
[30] = compound 100 μg/ml, arginine 2.5 μg/ml
[31] = compound 100 μg/ml, arginine 5.0 μg/ml
[32] = compound 100 μg/ml, arginine 7.5 μg/ml
[33] = compound 100 μg/ml, arginine 10 μg/ml
[34] = compound 100 μg/ml, arginine 15 μg/ml
[35] = compound 100 μg/ml, arginine 20 μg/ml
[36] = compound 100 μg/ml, arginine 25 μg/ml
[37] = compound 200 μg/ml, arginine 0 μg/ml
[38] = compound 200 μg/ml, arginine 2.5 μg/ml
[39] = compound 200 μg/ml, arginine 5.0 μg/ml
[40] = compound 200 μg/ml, arginine 7.5 μg/ml
[41] = compound 200 μg/ml, arginine 10 μg/ml
[42] = compound 200 μg/ml, arginine 15 μg/ml
[43] = compound 200 μg/ml, arginine 20 μg/ml
[44] = compound 200 μg/ml, arginine 25 μg/ml
[45] = compound 300 μg/ml, arginine 0 μg/ml
[46] = compound 300 μg/ml, arginine 2.5 μg/ml
[47] = compound 300 μg/ml, arginine 5.0 μg/ml
[48] = compound 300 μg/ml, arginine 7.5 μg/ml
[49] = compound 300 μg/ml, arginine 10 μg/ml
[50] = compound 300 μg/ml, arginine 15 μg/ml
[51] = compound 300 μg/ml, arginine 20 μg/ml
[52] = compound 300 μg/ml, arginine 25 μg/ml
[53] = compound 400 μg/ml, arginine 0 μg/ml
[54] = compound 400 μg/ml, arginine 2.5 μg/ml
[55] = compound 400 μg/ml, arginine 5.0 μg/ml
[56] = compound 400 μg/ml, arginine 7.5 μg/ml
[57] = compound 400 μg/ml, arginine 10 μg/ml
[58] = compound 400 μg/ml, arginine 15 μg/ml
[59] = compound 400 μg/ml, arginine 20 μg/ml
[60] = compound 400 μg/ml, arginine 25 μg/ml
[61] = compound 500 μg/ml, arginine 0 μg/ml
[62] = compound 500 μg/ml, arginine 2.5 μg/ml
[63] = compound 500 μg/ml, arginine 5.0 μg/ml
[64] = compound 500 μg/ml, arginine 7.5 μg/ml
[65] = compound 500 μg/ml, arginine 10 μg/ml
[66] = compound 500 μg/ml, arginine 15 μg/ml
[67] = compound 500 μg/ml, arginine 20 μg/ml
[68] = compound 500 μg/ml, arginine 25 μg/ml

NCCCCCC(N)C(=O)O (stereo not drawn) [drawing 16]
P.F.U. Count [1, 3]: <5 | P.F.U. Count [1, 4]: <5

CC(N)CCCCC(N)C(=O)O (stereo not drawn) [drawing 15]
P.F.U. Count [1, 3]: <5 | P.F.U. Count [1, 4]: <5

NCCCC[C@H](N)C(=O)O [Lysine, lysine, reference compound]
Plaque Forming Unit Count, Average ([1]; Lysine:Arginine Ratio 1:1 (control media)): 738 | Plaque Forming Unit Count ([1]; Lysine:Arginine Ratio 1:1 (control media), single experiment): 814 and 594 and 631 and 621 and 936 and 781 | Plaque Forming Unit Count, Average ([1]; Lysine:Arginine Ratio 500:1): 12

CC(N)CCCCC(N)C(=O)O (stereo not drawn) [drawing 18]
P.F.U. Count [2, 5]: 0 | P.F.U. Count [2, 6]: 0 | P.F.U. Count [2, 7]: 0 | P.F.U. Count [2, 8]: 0 | P.F.U. Count [2, 9]: 610 | P.F.U. Count [2, 10]: 46 | P.F.U. Count [2, 11]: 2.1 × 10^5 | P.F.U. Count [2, 12]: 2.8 × 10^5 | P.F.U. Count [2, 13]: 0 | P.F.U. Count [2, 14]: 0 | P.F.U. Count [2, 15]: 0 | P.F.U. Count [2, 16]: 0 | P.F.U. Count [2, 17]: 3.7 × 10^3 | P.F.U. Count [2, 18]: 4.2 × 10^3 | P.F.U. Count [2, 19]: 2.0 × 10^5 | P.F.U. Count [2, 20]: 2.1 × 10^5 | P.F.U. Count [2, 21]: 0 | P.F.U. Count [2, 22]: 0 | P.F.U. Count [2, 23]: 0 | P.F.U. Count [2, 24]: 0 | P.F.U. Count [2, 25]: 79 | P.F.U. Count [2, 26]: 276 | P.F.U. Count [2, 27]: 1.6 × 10^4 | P.F.U. Count [2, 28]: 1.1 × 10^4 | P.F.U. Count [2, 29]: 0 | P.F.U. Count [2, 30]: 0 | P.F.U. Count [2, 31]: 0 | P.F.U. Count [2, 32]: 0 | P.F.U. Count [2, 33]: 0 | P.F.U. Count [2, 34]: 0 | P.F.U. Count [2, 35]: 1.0 × 10^3 | P.F.U. Count [2, 36]: 1.6 × 10^3 | P.F.U. Count [2, 37]: 0 | P.F.U. Count [2, 38]: 0 | P.F.U. Count [2, 39]: 0 | P.F.U. Count [2, 40]: 0 | P.F.U. Count [2, 41]: 0 | P.F.U. Count [2, 42]: 0 | P.F.U. Count [2, 43]: 760 | P.F.U. Count [2, 44]: 1.7 × 10^3 | P.F.U. Count [2, 45]: 0 | P.F.U. Count [2, 46]: 0 | P.F.U. Count [2, 47]: 0 | P.F.U. Count [2, 48]: 0 | P.F.U. Count [2, 49]: 0 | P.F.U. Count [2, 50]: 0 | P.F.U. Count [2, 51]: 163 | P.F.U. Count [2, 52]: 1.0 × 10^3 | P.F.U. Count [2, 53]: 0 | P.F.U. Count [2, 54]: 0 | P.F.U. Count [2, 55]: 0 | P.F.U. Count [2, 56]: 0 | P.F.U. Count [2, 57]: 0 | P.F.U. Count [2, 58]: 179 | P.F.U. Count [2, 59]: 310 | P.F.U. Count [2, 60]: 140 | P.F.U. Count [2, 61]: 0 | P.F.U. Count [2, 62]: 0 | P.F.U. Count [2, 63]: 0 | P.F.U. Count [2, 64]: 0 | P.F.U. Count [2, 65]: 0 | P.F.U. Count [2, 66]: 0 | P.F.U. Count [2, 67]: 0 | P.F.U. Count [2, 68]: 0

NCCCCCC(N)C(=O)O (stereo not drawn) [drawing 17]
P.F.U. Count [2, 5]: 0 | P.F.U. Count [2, 6]: 0 | P.F.U. Count [2, 7]: 0 | P.F.U. Count [2, 8]: 0 | P.F.U. Count [2, 9]: 290 | P.F.U. Count [2, 10]: 799 | P.F.U. Count [2, 11]: 2.8 × 10^5 | P.F.U. Count [2, 12]: 2.8 × 10^5 | P.F.U. Count [2, 13]: 0 | P.F.U. Count [2, 14]: 0 | P.F.U. Count [2, 15]: 0 | P.F.U. Count [2, 16]: 0 | P.F.U. Count [2, 17]: 3.7 × 10^3 | P.F.U. Count [2, 18]: 4.2 × 10^3 | P.F.U. Count [2, 19]: 2.6 × 10^5 | P.F.U. Count [2, 20]: 4 × 10^5 | P.F.U. Count [2, 21]: 0 | P.F.U. Count [2, 22]: 0 | P.F.U. Count [2, 23]: 0 | P.F.U. Count [2, 24]: 0 | P.F.U. Count [2, 25]: 79 | P.F.U. Count [2, 26]: 276 | P.F.U. Count [2, 27]: 6.6 × 10^4 | P.F.U. Count [2, 28]: 3.6 × 10^4 | P.F.U. Count [2, 29]: 0 | P.F.U. Count [2, 30]: 0 | P.F.U. Count [2, 31]: 0 | P.F.U. Count [2, 32]: 0 | P.F.U. Count [2, 33]: 0 | P.F.U. Count [2, 34]: 0 | P.F.U. Count [2, 35]: 3.2 × 10^3 | P.F.U. Count [2, 36]: 6.6 × 10^3 | P.F.U. Count [2, 37]: 0 | P.F.U. Count [2, 38]: 0 | P.F.U. Count [2, 39]: 0 | P.F.U. Count [2, 40]: 0 | P.F.U. Count [2, 41]: 0 | P.F.U. Count [2, 42]: 0 | P.F.U. Count [2, 43]: 68 | P.F.U. Count [2, 44]: 654 | P.F.U. Count [2, 45]: 0 | P.F.U. Count [2, 46]: 0 | P.F.U. Count [2, 47]: 0 | P.F.U. Count [2, 48]: 0 | P.F.U. Count [2, 49]: 0 | P.F.U. Count [2, 50]: 0 | P.F.U. Count [2, 51]: 0 | P.F.U. Count [2, 52]: 0 | P.F.U. Count [2, 53]: 0 | P.F.U. Count [2, 54]: 0 | P.F.U. Count [2, 55]: 0 | P.F.U. Count [2, 56]: 0 | P.F.U. Count [2, 57]: 0 | P.F.U. Count [2, 58]: 0 | P.F.U. Count [2, 59]: 0 | P.F.U. Count [2, 60]: 0 | P.F.U. Count [2, 61]: 0 | P.F.U. Count [2, 62]: 0 | P.F.U. Count [2, 63]: 0 | P.F.U. Count [2, 64]: 0 | P.F.U. Count [2, 65]: 0 | P.F.U. Count [2, 66]: 0 | P.F.U. Count [2, 67]: 0 | P.F.U. Count [2, 68]: 0
